Data as given in patent publication US20240254087A1, “SELECTIVE, PARTIAL, AND ARRESTIN-BIASED 5-HT2A AGONISTS WITH UTILITY IN VARIOUS DISORDERS” (Saint Joseph's University, priority 2021, published 2024).
Structures can show the parent of a compound that is named as a salt. Where two headings read alike, the source gives them in different places.

Columns and labels:
5-HT2A [1] = assay: Ca2+ flux assay, 5-HT2A; type: cell-based, human; details: Gq/11 Ca2+ mobilization; higher number = skewed towards 5-HT2A
Description: (§1) Cell lines were maintained in DMEM containing 10% FBS, 10 μg/mL Blasticidin (Invivogen), and 100 μg/mL Hygromycin B (GoldBio). At least 20-24 hours before the assay, receptor expression was induced with tetracycline ([…]) and cells were seeded into 384-well poly-L-lysine-coated black plates at a density of 7,500 cells/well in DMEM containing 1% dialyzed FBS. On the day of the assay, the cells were incubated for 1 h at 37° C. with Fluo-4 Direct dye (Invitrogen, 20 μl/well) reconstituted in drug buffer (20 mM HEPES-buffered HBSS, pH 7.4) containing 2.5 mM probenecid. Drug dilutions were prepared at 5X final concentration in McCorvy buffer (20 mM HEPES-buffered HBSS, 0).1% BSA, 0.01% ascorbic acid pH 7.4). After dye load, cells were allowed to equilibrate to room temperature for 15 minutes, and then placed in a FLIPR^TETRA fluorescence imaging plate reader (Molecular Devices). Fluorescence for the FLIPR^TETRA were programmed to read baseline fluorescence for 10 s (1 read/s), and afterward 5 μl of drug per well was added and read for a total of 5-10 min (1 read/s). Fluorescence in each well was normalized to the average of the first 10 reads for baseline fluorescence, and then either maximum-fold peak increase over basal or area under the curve (AUC) was calculated. […] Data was plotted and non-linear regression was performed using “log(agonist) vs. response” in Graphpad Prism 8 to yield Emax and EC50 parameter estimates.

5-HT2B [2] = target: T1, 5-HT2B (Homo sapiens, UniProt P41595); assay: BRET Gq dissociation, 5-HT2B; type: cell-based; set-up: expressed in transfected cells; host or cells: HEK293T, transient; details: for Emax: read-out: 5-HT2B Gq Dissociation (BRET) EMAX ± SEM (%5-HT)
T1 sequence (P41595 whole entry): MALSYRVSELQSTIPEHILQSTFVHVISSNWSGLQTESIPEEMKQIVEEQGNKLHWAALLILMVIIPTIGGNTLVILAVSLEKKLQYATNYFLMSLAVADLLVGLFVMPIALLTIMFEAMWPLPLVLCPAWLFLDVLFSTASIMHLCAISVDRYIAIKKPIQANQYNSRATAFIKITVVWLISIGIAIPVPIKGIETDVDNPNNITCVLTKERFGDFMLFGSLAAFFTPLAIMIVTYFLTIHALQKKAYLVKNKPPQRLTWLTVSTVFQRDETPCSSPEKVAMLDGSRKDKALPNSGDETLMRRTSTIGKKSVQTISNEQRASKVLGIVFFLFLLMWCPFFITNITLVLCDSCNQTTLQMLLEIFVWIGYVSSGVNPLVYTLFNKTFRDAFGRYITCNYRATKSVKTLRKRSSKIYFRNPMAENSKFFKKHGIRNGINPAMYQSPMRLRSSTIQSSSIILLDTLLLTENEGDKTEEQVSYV

5-HT2C [3] = target: T2, 5-HT2C (Homo sapiens, UniProt P28335); assay: BRET Gq dissociation, 5-HT2C; type: cell-based; set-up: expressed in transfected cells; host or cells: HEK293T, transient; details: for Emax: read-out: 5-HT2C Gq Dissociation (BRET) EMAX ± SEM (%5-HT)
T2 sequence (P28335 33-458): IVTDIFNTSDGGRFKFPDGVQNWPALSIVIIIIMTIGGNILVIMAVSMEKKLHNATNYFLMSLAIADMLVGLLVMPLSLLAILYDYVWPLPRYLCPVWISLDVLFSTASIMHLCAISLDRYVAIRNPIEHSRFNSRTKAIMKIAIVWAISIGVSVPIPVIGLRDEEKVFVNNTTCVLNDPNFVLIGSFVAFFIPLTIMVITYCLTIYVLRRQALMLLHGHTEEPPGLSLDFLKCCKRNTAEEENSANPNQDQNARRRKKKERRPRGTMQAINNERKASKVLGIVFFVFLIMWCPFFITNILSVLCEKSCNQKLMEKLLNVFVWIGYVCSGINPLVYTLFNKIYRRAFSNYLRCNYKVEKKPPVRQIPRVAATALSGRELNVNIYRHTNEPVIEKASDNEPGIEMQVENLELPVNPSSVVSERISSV

male C57BL/6J mice = assay: Head-twitch response (HTR) in mice; type: in vivo, mouse; details: for ED50: Mus musculus
Description: Male C57BL/6J mice (6-8 weeks old) from Jackson Labs (Bar Harbor, ME, USA) were used for the behavioral experiments. The mice were housed on a reversed light-dark cycle (lights on at 1900 h, off at 0700 h) in an AAAC-approved vivarium at the University of California San Diego. Mice were housed up to four per cage in a climate-controlled room and with food and water provided ad libitum except during behavioral testing. Testing was performed between 1000 and 1800 h (during the dark phase of the light-dark cycle). The studies were conducted in accordance with National Institutes Health (NIH) guidelines and were approved by the University of California San Diego Institutional Animal Care and Use Committee.
The mice were allowed to recover from the magnet implantation surgeries for at least 1 week prior to behavioral testing. HTR experiments were conducted in a well-lit room, and the mice were allowed to habituate to the room for at least 1 h prior to testing. Head twitches was assessed in a 12-cm diameter glass cylinder surrounded by a magnetometer coil. Coil voltage was low-pass filtered (2 kHz), amplified, and digitized (20-kHz sampling rate) using a Powerlab/8SP with LabChart v 7.3.2 (ADInstruments, Colorado Springs, CO, USA). […] HTR counts were analyzed using one-way ANOVAs. Dunnett's test was used for post hoc comparisons.

5-HT2C [4] = target: T2, 5-HT2C; assay: Ca2+ flux assay, 5-HT2C; type: cell-based; set-up: expressed in transfected cells; details: for EC50: 5-HT2C EC50, nM; for Emax: read-out: 5-HT2C Emax % 5-HT
Description: as §1

5-HT2A [5] = target: 5-HT2A (Homo sapiens, UniProt P28223); assay: Ca2+ flux assay, 5-HT2A; type: cell-based; set-up: expressed in transfected cells; details: for EC50: Ca2+ flux; for Emax: read-out: 5-HT2A Emax % 5-HT, Ca2+ flux
5-HT2A (Homo sapiens, UniProt P28223), sequence (P28223 whole entry): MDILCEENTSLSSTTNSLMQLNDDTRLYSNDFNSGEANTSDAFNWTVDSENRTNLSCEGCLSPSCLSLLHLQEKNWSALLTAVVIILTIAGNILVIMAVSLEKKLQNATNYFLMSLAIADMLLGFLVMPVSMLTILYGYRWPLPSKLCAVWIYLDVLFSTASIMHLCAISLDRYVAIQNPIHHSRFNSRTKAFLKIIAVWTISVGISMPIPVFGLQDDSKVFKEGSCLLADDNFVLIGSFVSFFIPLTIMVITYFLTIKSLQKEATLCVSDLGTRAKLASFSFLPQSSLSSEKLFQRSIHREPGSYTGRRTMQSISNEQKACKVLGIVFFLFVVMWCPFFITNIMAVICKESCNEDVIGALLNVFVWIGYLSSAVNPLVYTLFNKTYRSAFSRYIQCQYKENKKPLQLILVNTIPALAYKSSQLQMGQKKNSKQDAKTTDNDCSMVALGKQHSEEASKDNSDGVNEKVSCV
Description: as §1

5-HT2B [6] = target: T1, 5-HT2B; assay: Ca2+ flux assay, 5-HT2B; type: cell-based; set-up: expressed in transfected cells; details: Ca2+ flux; for Emax: read-out: 5-HT2B Emax % 5-HT
Description: as §1

[7] = read-out: HTR ED50 μmol/kg (95% CI), SC, except DOI and 25D-NBOMe IP
[8] = read-out: HTR ED50 mg/kg (95% CI), SC, except DOI and 25D-NBOMe IP

Structure (SMILES)	melting point [°C]	5-HT2A/5-HT2c Selectivity Factor ΔLog(Emax/EC50) (5-HT2A [1])	Max HTR response during a 30-min assessment (maximum counts ÷ baseline response) (male C57BL/6J mice)	ED50 (male C57BL/6J mice; [7]) [µmol/kg]	ED50 (male C57BL/6J mice; [8]) [mg/kg]	EC50 (5-HT2C [4]) [nM]	Emax (5-HT2C [4]) [%]	Emax (5-HT2A [5]) [%]	5-HT2B EC50, nM (5-HT2B [6])	Emax (5-HT2B [6]) [%]	further results
COc1cc(OC)c(OC)cc1CCNC(C)c1cccc2ccccc12 (centres unmarked) (as salt: HCl)	195.2 to 196.4										
COc1cc([N+](=O)[O-])c(OC)cc1CCNCc1cccc2ccccc12 (as salt: HCl) [25N-N-1-Nap (16), [2-(2,5-dimethoxy-4-nitrophenyl)ethyl][(naphthalen-1-yl)methyl]amine]	191.8 to 192.3										
COc1cc([N+](=O)[O-])c(OC)cc1CCNCc1ccccc1 (as salt: HCl) [25N-NB (2), Benzyl[2-(2,5-dimethoxy-4-nitrophenyl)ethyl]amine]	220 to 221										
COc1cc([N+](=O)[O-])c(OC)cc1CCNCc1cccc(F)c1OC (as salt: HCl) [25N-NB-2-MeO-3-F (19), [2-(2,5-dimethoxy-4-nitrophenyl)ethyl][(3-fluoro-2-methoxyphenyl)methyl]amine]	155 to 156.7										
COc1cc([N+](=O)[O-])c(OC)cc1CCNCc1cccc(C)c1O (as salt: HCl) [25N-NB-2-OH-3-Me (18), 2-({[2-(2,5-dimethoxy-4-nitrophenyl)ethyl]amino}methyl)-6-methylphenol]	177.6 to 179.5										
COc1cc([N+](=O)[O-])c(OC)cc1CCNCc1cccc(F)c1 (as salt: HCl) [25N-NB-3-F (24), [2-(2,5-dimethoxy-4-nitrophenyl)ethyl][(3-fluorophenyl)methyl]amine]	216.2 to 217.5										
COc1cc([N+](=O)[O-])c(OC)cc1CCNCc1cccc(C)c1 (as salt: HCl) [25N-NB-3-Me (22), [2-(2,5-dimethoxy-4-nitrophenyl)ethyl][(3-methylphenyl)methyl]amine]	194.4 to 195.5										
COc1cc([N+](=O)[O-])c(OC)cc1CCNCc1cccc(O)c1 (as salt: HCl) [25N-NB-3-OH (21), 3-({[2-(2,5-dimethoxy-4-nitrophenyl)ethyl]amino}methyl)phenol]	194 to 195.5										
COc1cc([N+](=O)[O-])c(OC)cc1CCNCc1ccc(F)cc1 (as salt: HCl) [25N-NB-4-F (25), [2-(2,5-dimethoxy-4-nitrophenyl)ethyl][(4-fluorophenyl)methyl]amine]	180 to 181										
COc1cc([N+](=O)[O-])c(OC)cc1CCNCc1ccc(C)cc1 (as salt: HCl) [25N-NB-4-Me (23), [2-(2,5-dimethoxy-4-nitrophenyl)ethyl] [(4-methylphenyl)methyl]amine]	182 to 184										
COc1cc([N+](=O)[O-])c(OC)cc1CCNCc1ccccc1C(F)(F)F (as salt: HCl) [25N-NBCF3 (14), [2-(2,5-dimethoxy-4-nitrophenyl)ethyl]({[2-(trifluoromethyl)phenyl]methyl}) amine]	156.7 to 159.1										
COc1cc([N+](=O)[O-])c(OC)cc1CCNCc1cccc2c1OC(F)(F)O2 (as salt: HCl) [25N-NBMDF2 (13), [(2,2-difluoro-2H-1,3-benzodioxol-4-yl)methyl][2-(2,5-dimethoxy-4-nitrophenyl)ethyl]amine]	208.4 to 209.8										
COc1cc([N+](=O)[O-])c(OC)cc1CCNCc1ccccc1[N+](=O)[O-] (as salt: HCl) [25N-NBNO2 (15), [2-(2,5-dimethoxy-4-nitrophenyl)ethyl][(2-nitrophenyl)methyl]amine]	200.5 to 201.7										
COc1cc([N+](=O)[O-])c(OC)cc1CCNCc1ccccc1Br [25N-NBBr (9)]		61.9	4.7-fold increase	14.6	6.31	144	78 ± 2	79 ± 2	No activity	< 10	EC50 (5-HT2B [2]): 245 nM; Emax (5-HT2B [2]): 17 ± 2.1%; EC50 (5-HT2C [3]): 30.9 nM; Emax (5-HT2C [3]): 81 ± 2.3%; EC50 (5-HT2A [5]; 5-HT2A EC50, nM): 2.36 nM
COc1cc([N+](=O)[O-])c(OC)cc1CCNCc1ccccc1Cl [25N-NBCl (8)]		43.3	2.3-fold increase	10.4	4.04	89.3	81 ± 2	80 ± 2	No activity	< 10	EC50 (5-HT2B [2]): 204 nM; Emax (5-HT2B [2]): 27 ± 3%; EC50 (5-HT2C [3]): 21.4 nM; Emax (5-HT2C [3]): 82.5 ± 2.8%; EC50 (5-HT2A [5]; 5-HT2A EC50, nM): 2.03 nM
COc1cc([N+](=O)[O-])c(OC)cc1CCNCc1ccccc1F [25N-NBF (7)]		18.9	4.5-fold increase	4.1	1.52	28.8	82 ± 2	84 ± 1	No activity	< 10	EC50 (5-HT2B [2]): 75.9 nM; Emax (5-HT2B [2]): 24.8 ± 3.2%; EC50 (5-HT2C [3]): 14.1 nM; Emax (5-HT2C [3]): 83.1 ± 2.1%; EC50 (5-HT2A [5]; 5-HT2A EC50, nM): 1.56 nM
COc1cc([N+](=O)[O-])c(OC)cc1CCNCc1ccccc1C [25N-NBMe (6)]		26.7	8.0-fold increase	3.24	1.19	33.2	89 ± 2	85 ± 1	No activity	< 10	EC50 (5-HT2B [2]): 9.55 nM; Emax (5-HT2B [2]): 22.2 ± 3.2%; EC50 (5-HT2C [3]): 11.5 nM; Emax (5-HT2C [3]): 89.4 ± 2.3%; EC50 (5-HT2A [5]; 5-HT2A EC50, nM): 1.19 nM
CCOc1ccccc1CNCCc1cc(OC)c([N+](=O)[O-])cc1OC [25N-NBOEt (5)]		1.0	13.2-fold increase	1.44	0.57	0.88	99 ± 1	87 ± 2	No activity	< 10	EC50 (5-HT2A [5]; 5-HT2A EC50, nM): 0.72 nM
COc1cc([N+](=O)[O-])c(OC)cc1CCNCc1ccccc1O [25N-NBOH (3), 2-({[2-(2,5-dimethoxy-4-nitrophenyl)ethyl]amino}methyl)phenol]		4.9	8.8-fold increase	0.19	0.07	1.78	100 ± 2	87 ± 2	No activity	< 10	EC50 (5-HT2A [5]; 5-HT2A (pEC50 ± SEM)): 0.316 nM
